In general, Kd refers to the free concentration of one partner at which half of the binding sites on the other are occupied at equilibrium, for simple one-to-one binding.

In ChEMBL document CHEMBL3991601, “The target landscape of clinical kinase drugs” (Science, 2017) one finds Kd data, which are given here for 17 compounds.

SMILES strings stand for the structures. Active and inactive are the calls of the source. For most assays here, no stated cut-off is given here; in the data, actives have a measured Kd and inactives only a lower limit.

The target of assay [1] is Bone morphogenetic protein receptor type-1B (Homo sapiens, UniProt O00238).
For assay [2], the target named is T1, Mitogen-activated protein kinase 15 (Homo sapiens, UniProt Q8TD08).
T1 sequence (Q8TD08 whole entry): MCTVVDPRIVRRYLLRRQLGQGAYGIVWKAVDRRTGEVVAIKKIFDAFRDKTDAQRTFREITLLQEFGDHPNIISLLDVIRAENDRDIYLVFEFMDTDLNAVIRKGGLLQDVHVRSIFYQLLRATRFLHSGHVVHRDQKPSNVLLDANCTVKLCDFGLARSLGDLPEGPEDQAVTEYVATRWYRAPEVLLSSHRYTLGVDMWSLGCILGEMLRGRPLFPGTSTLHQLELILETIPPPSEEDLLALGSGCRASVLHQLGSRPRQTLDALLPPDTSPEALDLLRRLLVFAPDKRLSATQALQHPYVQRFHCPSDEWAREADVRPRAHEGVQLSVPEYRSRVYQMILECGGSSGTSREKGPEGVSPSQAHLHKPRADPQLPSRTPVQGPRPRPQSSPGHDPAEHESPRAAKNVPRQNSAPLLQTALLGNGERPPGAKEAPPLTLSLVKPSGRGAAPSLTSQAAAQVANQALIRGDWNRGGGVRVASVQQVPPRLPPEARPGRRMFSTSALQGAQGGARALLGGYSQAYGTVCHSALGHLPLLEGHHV

Assay [3] has as its target T2, Probable ATP-dependent RNA helicase DDX6 (Homo sapiens, UniProt P26196).
T2 sequence (P26196 whole entry): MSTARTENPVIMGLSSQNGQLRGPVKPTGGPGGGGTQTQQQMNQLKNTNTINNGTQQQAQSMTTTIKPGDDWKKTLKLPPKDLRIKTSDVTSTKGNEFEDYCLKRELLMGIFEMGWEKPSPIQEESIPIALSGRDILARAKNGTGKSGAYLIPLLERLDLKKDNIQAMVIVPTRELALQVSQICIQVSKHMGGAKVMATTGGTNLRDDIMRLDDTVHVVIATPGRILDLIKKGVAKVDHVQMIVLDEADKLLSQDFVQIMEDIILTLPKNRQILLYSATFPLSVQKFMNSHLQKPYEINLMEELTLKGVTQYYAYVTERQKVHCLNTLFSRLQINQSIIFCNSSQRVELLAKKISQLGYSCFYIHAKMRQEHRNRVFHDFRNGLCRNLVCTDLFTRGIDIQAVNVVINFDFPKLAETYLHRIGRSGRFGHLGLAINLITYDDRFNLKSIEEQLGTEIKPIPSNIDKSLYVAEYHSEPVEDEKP

For assay [4], the target named is Tyrosine-protein kinase Yes (Homo sapiens, UniProt P07947).
Assay [5] deals with cAMP-dependent protein kinase type II-alpha regulatory subunit (Homo sapiens, UniProt P13861).
Assay [6] has as its target ATP-dependent RNA helicase DDX3X (Homo sapiens, UniProt O00571).
Another assay deals with T3, Activin receptor type-1 (Homo sapiens, UniProt Q04771).
T3 sequence (Q04771 whole entry): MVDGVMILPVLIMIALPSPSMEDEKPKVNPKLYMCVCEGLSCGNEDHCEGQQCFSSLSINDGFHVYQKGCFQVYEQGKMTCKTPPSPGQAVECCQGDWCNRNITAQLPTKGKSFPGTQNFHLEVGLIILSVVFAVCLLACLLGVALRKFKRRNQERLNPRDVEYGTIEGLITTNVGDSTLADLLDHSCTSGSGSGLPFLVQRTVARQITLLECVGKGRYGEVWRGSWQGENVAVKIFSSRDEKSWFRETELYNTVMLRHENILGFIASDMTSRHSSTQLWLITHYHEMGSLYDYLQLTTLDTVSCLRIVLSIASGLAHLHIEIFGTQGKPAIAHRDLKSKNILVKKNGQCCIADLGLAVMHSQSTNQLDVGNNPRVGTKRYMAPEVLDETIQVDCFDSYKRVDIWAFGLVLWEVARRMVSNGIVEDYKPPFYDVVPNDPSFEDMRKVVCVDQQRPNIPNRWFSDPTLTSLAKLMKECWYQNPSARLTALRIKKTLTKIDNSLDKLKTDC

In assay [7] the target is Ribosomal protein S6 kinase alpha-1 (Homo sapiens, UniProt Q15418).
Assay [8] deals with Eukaryotic translation initiation factor 2-alpha kinase 1 (Homo sapiens, UniProt Q9BQI3).
Assay [9] deals with Protein kinase C delta type (Homo sapiens, UniProt Q05655).
Sequence of Protein kinase C delta type (Q05655 whole entry): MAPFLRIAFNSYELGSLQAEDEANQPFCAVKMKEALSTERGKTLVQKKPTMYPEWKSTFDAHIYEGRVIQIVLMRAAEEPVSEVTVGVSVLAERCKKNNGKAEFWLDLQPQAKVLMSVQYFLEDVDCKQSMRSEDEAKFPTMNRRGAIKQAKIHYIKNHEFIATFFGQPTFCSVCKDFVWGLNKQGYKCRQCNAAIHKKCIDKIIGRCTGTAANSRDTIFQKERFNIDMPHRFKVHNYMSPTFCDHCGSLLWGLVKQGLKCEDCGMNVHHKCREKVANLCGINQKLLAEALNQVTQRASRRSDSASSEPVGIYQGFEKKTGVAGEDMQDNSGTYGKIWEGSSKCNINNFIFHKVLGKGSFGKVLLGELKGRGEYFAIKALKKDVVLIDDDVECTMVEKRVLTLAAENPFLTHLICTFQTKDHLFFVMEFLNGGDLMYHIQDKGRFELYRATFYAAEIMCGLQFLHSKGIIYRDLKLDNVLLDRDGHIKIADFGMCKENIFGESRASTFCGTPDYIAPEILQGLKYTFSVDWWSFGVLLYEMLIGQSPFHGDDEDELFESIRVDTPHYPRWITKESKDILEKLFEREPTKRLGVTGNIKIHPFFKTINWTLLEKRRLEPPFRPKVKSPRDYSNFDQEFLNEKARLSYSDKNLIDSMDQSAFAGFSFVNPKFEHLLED

Sequence of ATP-dependent RNA helicase DDX3X (O00571 whole entry): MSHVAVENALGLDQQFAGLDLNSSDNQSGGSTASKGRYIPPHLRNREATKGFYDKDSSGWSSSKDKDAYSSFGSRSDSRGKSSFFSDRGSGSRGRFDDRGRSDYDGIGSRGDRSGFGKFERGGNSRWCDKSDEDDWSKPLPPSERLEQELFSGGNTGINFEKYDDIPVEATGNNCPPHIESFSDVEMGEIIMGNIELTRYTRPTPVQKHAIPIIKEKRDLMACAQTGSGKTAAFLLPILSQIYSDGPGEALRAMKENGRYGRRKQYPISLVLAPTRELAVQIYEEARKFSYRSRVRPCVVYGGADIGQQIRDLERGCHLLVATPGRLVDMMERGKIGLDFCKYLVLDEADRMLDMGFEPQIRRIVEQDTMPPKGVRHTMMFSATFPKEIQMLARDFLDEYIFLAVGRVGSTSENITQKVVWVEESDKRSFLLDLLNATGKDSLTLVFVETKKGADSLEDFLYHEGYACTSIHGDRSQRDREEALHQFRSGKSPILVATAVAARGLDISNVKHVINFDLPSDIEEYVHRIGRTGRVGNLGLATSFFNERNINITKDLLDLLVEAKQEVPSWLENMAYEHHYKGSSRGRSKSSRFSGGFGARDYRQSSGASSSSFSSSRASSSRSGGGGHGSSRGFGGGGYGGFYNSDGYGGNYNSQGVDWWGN
Sequence of Tyrosine-protein kinase Yes (P07947 whole entry): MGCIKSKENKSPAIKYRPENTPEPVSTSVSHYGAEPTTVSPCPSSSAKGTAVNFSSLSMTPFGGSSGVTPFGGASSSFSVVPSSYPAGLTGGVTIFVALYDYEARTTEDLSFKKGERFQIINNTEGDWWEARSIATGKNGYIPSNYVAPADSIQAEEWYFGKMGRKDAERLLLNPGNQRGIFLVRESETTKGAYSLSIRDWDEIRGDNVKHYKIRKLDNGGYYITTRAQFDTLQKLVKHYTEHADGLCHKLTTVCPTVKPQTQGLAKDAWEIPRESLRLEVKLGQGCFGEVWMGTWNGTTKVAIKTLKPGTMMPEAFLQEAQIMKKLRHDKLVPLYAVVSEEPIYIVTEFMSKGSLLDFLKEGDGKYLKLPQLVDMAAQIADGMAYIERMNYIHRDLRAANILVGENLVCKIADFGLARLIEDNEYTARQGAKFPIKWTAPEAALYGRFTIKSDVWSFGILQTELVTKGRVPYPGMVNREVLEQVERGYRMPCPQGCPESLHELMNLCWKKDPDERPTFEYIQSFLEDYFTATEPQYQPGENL
Sequence of Bone morphogenetic protein receptor type-1B (O00238 whole entry): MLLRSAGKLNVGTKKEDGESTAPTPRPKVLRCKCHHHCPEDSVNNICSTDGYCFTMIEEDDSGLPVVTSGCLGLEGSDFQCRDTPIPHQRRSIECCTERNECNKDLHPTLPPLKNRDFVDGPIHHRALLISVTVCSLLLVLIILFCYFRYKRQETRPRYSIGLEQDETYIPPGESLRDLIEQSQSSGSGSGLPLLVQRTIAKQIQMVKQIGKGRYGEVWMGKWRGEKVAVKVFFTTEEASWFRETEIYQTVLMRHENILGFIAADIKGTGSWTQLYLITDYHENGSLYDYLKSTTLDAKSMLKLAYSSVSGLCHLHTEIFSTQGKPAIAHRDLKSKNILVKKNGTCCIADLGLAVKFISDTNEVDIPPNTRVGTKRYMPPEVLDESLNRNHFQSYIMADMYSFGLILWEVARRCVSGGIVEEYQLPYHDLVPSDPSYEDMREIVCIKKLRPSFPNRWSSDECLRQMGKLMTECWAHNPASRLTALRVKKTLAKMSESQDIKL
Sequence of cAMP-dependent protein kinase type II-alpha regulatory subunit (P13861 whole entry): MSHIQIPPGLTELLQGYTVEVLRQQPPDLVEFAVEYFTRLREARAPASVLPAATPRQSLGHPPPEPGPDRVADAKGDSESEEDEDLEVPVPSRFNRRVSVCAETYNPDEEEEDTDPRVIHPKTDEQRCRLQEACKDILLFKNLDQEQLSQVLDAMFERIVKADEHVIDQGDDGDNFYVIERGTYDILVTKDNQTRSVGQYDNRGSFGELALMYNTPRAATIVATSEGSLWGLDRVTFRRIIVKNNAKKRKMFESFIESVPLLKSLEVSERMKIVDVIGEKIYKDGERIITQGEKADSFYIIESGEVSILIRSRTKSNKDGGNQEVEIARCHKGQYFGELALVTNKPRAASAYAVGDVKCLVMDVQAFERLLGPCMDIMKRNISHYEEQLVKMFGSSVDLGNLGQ
Sequence of Eukaryotic translation initiation factor 2-alpha kinase 1 (Q9BQI3 whole entry): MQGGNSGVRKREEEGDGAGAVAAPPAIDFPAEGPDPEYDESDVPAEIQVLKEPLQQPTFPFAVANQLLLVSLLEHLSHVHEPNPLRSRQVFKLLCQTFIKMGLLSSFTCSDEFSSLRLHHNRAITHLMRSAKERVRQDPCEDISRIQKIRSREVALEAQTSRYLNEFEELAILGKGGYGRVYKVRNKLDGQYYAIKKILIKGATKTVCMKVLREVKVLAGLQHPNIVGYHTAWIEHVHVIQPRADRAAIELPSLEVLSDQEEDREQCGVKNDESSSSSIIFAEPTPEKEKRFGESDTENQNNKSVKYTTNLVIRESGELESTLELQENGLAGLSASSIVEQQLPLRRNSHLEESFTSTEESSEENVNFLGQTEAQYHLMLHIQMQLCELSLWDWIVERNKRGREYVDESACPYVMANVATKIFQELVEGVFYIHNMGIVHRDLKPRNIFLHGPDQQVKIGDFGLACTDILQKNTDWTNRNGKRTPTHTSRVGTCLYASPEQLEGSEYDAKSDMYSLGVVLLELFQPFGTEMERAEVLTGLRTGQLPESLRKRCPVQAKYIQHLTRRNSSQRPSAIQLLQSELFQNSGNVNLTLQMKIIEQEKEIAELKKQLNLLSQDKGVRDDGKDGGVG
Sequence of Ribosomal protein S6 kinase alpha-1 (Q15418 whole entry): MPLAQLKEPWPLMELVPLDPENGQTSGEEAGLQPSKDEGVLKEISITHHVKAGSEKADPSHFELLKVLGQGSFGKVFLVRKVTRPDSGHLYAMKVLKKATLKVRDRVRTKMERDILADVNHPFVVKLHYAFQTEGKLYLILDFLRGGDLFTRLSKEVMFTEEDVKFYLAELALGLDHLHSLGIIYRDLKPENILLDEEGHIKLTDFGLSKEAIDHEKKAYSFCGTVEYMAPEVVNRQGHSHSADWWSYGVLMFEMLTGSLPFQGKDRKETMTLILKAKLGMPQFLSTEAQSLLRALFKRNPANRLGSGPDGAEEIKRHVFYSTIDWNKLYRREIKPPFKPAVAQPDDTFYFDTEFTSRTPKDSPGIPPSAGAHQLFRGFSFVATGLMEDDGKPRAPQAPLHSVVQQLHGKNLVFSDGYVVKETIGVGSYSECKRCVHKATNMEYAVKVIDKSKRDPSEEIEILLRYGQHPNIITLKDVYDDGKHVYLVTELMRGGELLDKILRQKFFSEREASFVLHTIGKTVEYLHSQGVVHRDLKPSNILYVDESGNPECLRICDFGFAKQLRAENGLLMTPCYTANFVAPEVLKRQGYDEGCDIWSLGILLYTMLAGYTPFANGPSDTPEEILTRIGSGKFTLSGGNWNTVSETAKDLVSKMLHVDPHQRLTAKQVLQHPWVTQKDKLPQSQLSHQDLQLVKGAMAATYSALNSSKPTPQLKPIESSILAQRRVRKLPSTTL

For `O=C(Nc1cccc(Cl)c1)Nc1ncc(CCNc2ncnc3ccsc23)s1` [SNS-314], the Kd in assay [1], in assay [2], in assay [3], in assay [4], in [5] and in assay [6] was > 30 µM (inactive) in each case. Moreover, the Kd (on Activin receptor type-1; in assay [7]; in assay [8]) was > 30 µM (inactive) each time.
On to `Cc1cn(-c2cc(NC(=O)c3ccc(C)c(Nc4nccc(-c5cccnc5)n4)c3)cc(C(F)(F)F)c2)cn1` [NILOTINIB], for which the Kd in assay [3], in [5] and in assay [6] was > 30 µM (inactive) each time.
For `C=CC(=O)N1CCC(Oc2cc3c(Nc4ccc(Cl)c(Cl)c4F)ncnc3cc2OC)CC1` [POZIOTINIB], the Kd in [1], in assay [9], in [2], in [3], in [4] and in assay [6] was > 30 µM (inactive) throughout. The Kd (at Activin receptor type-1; in [7]; in [8]) was > 30 µM (inactive) throughout.
In the case of `Cc1ccc(-n2nc(C(C)(C)C)cc2NC(=O)NCc2cc(F)ccc2Oc2ccc3c(cnn3CCO)c2)cc1` [PEXMETINIB], the Kd in assay [1], in assay [9], in assay [2], in [3], in [4] and in assay [6] was > 30 µM (inactive) each time. Besides, the Kd (at Activin receptor type-1; in assay [7]; in assay [8]) was > 30 µM (inactive) in each case.
`Nc1nc(N)c2nc(-c3cccc(O)c3)c(-c3cccc(O)c3)nc2n1` [TG100-115]: the Kd in assay [3], in assay [5] and in [6] was > 30 µM (inactive) throughout.
Take `CN1CCN(c2ccc3nc(-c4c(N)c5c(F)cccc5[nH]c4=O)[nH]c3c2)CC1` [DOVITINIB]: the Kd in assay [3], in assay [5] and in [6] was > 30 µM (inactive) throughout.
Consider `Cc1cc(Nc2cc(N3CCN(C)CC3)nc(/C=C/c3ccccc3)n2)n[nH]1` [ENMD-2076], for which the Kd in assay [1] is > 30 µM (inactive); in [2], > 30 µM (inactive); in [3] it was > 30 µM (inactive); in assay [4], 0.441 µM (active); in [5] it was > 30 µM (inactive); in [6], > 30 µM (inactive). The Kd in assay [7] is > 30 µM (inactive).
Turning to `CNC(=O)c1ccc(C)c(-n2c(C)cc(OCc3ccc(F)cc3F)c(Br)c2=O)c1` [PH-797804], the Kd (in assay [1]; in [9]; in [2]; in [4]; in [6]; on Activin receptor type-1) was > 30 µM (inactive) throughout. The Kd in assay [7] and in assay [8] was > 30 µM (inactive) each time.
As to `Cc1nc(N)sc1-c1ccnc(Nc2ccc(N3CCOCC3)cc2)n1` [CYC-116], the Kd was > 30 µM (inactive) in [1]; > 30 µM (inactive) in assay [2]; > 30 µM (inactive) in [3]; > 30 µM (inactive) in [4]; > 30 µM (inactive) in [6]; 0.396 µM (active) on Activin receptor type-1. Further, the Kd in assay [7] and in [8] was > 30 µM (inactive) throughout.
Regarding `C[C@@H](Nc1cc(F)cc(F)c1)c1cc(C(=O)N(C)C)cc2c(=O)cc(N3CCOCC3)oc12` [AZD-8186], the Kd (in assay [1]; in [9]; in assay [2]; in assay [4]; in assay [6]; at Activin receptor type-1) was > 30 µM (inactive) in each case. Besides, the Kd in assay [7] and in assay [8] was > 30 µM (inactive) each time.
Turning to `CCn1c(-c2nonc2N)nc2c(C#CC(C)(C)O)ncc(OC[C@H]3CCCNC3)c21` [GSK-690693], the Kd in assay [3] is > 30 µM (inactive); in assay [5], 0.052 µM; in assay [6], > 30 µM (inactive).
Regarding `OCCn1cc(-c2cnc3nnn(Cc4ccc5ncccc5c4)c3n2)cn1` [PF-04217903], the Kd in assay [1], in [9], in [2], in [3], in assay [4] and in [5] was > 30 µM (inactive) throughout. Besides, the Kd in [6], in assay [7] and in assay [8] was > 30 µM (inactive) throughout.
For the compound `COC(=O)[C@@]1(O)C[C@H]2O[C@]1(C)n1c3ccccc3c3c4c(c5c6ccccc6n2c5c31)C(=O)NC4` [K-252A], the Kd in assay [1] was > 30 µM (inactive); in assay [2] it was 0.167 µM (active); in assay [3], > 30 µM (inactive); in assay [4], > 30 µM (inactive); in assay [5] it was > 30 µM (inactive); in assay [6], > 30 µM (inactive). Moreover, the values for the Kd (at Activin receptor type-1; in [7]; in [8]) were > 30 µM (inactive), 2.99 µM (active) and > 30 µM (inactive), respectively.
As to `Cc1ccc(S(=O)(=O)Nc2nc3ccccc3nc2Nc2ccc3nsnc3c2)cc1`, the Kd in assay [1], in assay [9], in assay [2], in assay [3], in [4] and in assay [6] was > 30 µM (inactive) each time. Further, the Kd (on Activin receptor type-1; in assay [7]; in assay [8]) was > 30 µM (inactive) throughout.
As to `Cn1cc(-c2ccc(F)c(C(F)(F)F)c2)nc1C1CCN(c2ncnc3[nH]ncc23)CC1` [LY-2584702], the Kd in assay [1], in assay [9], in assay [2], in assay [3], in [4] and in [6] was > 30 µM (inactive) throughout. Further, the Kd (on Activin receptor type-1; in assay [7]; in [8]) was > 30 µM (inactive) each time.
Consider `CN(C)C(=O)c1cc2cnc(Nc3ccc(N4CCNCC4)cn3)nc2n1C1CCCC1` [RIBOCICLIB], for which the Kd in assay [1], in assay [9], in [2], in assay [3], in assay [4] and in [6] was > 30 µM (inactive) each time. The Kd (on Activin receptor type-1; in assay [7]; in assay [8]) was > 30 µM (inactive) throughout.
As to `CN1N=C(N)c2cn([C@@H]3O[C@H](COP(=O)(O)O)[C@@H](O)[C@H]3O)c3ncnc1c23` [TRICIRIBINE PHOSPHATE], the Kd in assay [9], in [2], in assay [3], in assay [4], in assay [5] and in [6] was > 30 µM (inactive) each time. For the same compound, the Kd (on Activin receptor type-1; in assay [7]) was > 30 µM (inactive) throughout.
